Columns and labels:
[1] = doxorubicin release from glucomannan alginate blends (dialysis, absorbance at 485 nm); format: physicochemical; conditions: from sulfonated glucomannan calcium alginate blend; Hepes Buffered Saline with 30% FBS, 37° C., pH 7.4; n=10
Protocol: For examination of doxorubicin release from glucomannan alginate blends, sulfated glucomannan as described above was added 1:1 with PRONOVA UP MVM alginate from FMC Biopolymers (Haugesund, Norway), and at a concentration of 2% w/v to a standard nonionic contrast agent (Iohexyl, Omnipaque 300, Amersham Health, Princeton, N.J.). To this 6 mg doxorubicin was added and the mixture was polymerized in 100 mM calcium chloride. Dox loaded hydrogels were then placed into dialysis tubing (molecular weight cut-off of 10,000 DA) sealed at both ends with clips. Dialysis tubing was then placed into a beaker containing 1000-fold excess Hepes Buffered Saline with 30% FBS and incubated at 37° C. and pH 7.4. A doxorubicin standard curve ranging from 0 to 6 mg/mL drug was prepared in saline. From these standard curves the percentage of total drug release was calculated. Doxorubicin release was monitored by measuring the time dependence of the absorbance at 485 nm.

[2] = dissolution of self-gelling alginate gel by alginate lyase; format: biochemical; conditions: 0.5 mL of alginate lyase added to 5 mL gel (1.5% calcium alginate, 1% sodium alginate) after 1 hour gelling
From the text: In embodiments, a self-gelling alginate can be modified to contain an optical agent to assess localization. For example, the FDA approved optical agent inodcyanine green has used at a concentration of 0.005% to assess localization after injection with infrared. Gels can be made by mixing a solution of sodium alginate (Protanal SF 120) and a calcium alginate dispersion (Protaweld TX 120). The amount of calcium alginate can be 1.5%, and the amount of sodium alginate can be 1%. The solution and dispersion are mixed and 5 mL of the gel injected into a 50 mL conical tube. The sample was left to gel for 1 hour.

Molecule	doxorubicin release profile [1]	dissolution of hardened alginate gel [2]
COc1cccc2c1C(=O)c1c(O)c3c(c(O)c1C2=O)C[C@@](O)(C(=O)CO)C[C@@H]3O[C@H]1C[C@H](N)[C@H](O)[C@H](C)O1 [doxorubicin]	eight	–
alginate lyase: enzymes that catalyze the degradation of alginate (protein, listed as Pseudomonas aeruginosa) MKTSHLIRIALPGALAAALLASQVSQAADLVPPPGYYAAVGERKGSAGSCPAVPPPYTGSLVFTSKYEGSDSARATLNVKAEKTFRSQIKDITDMERGATKLVTQYMRSGRDGDLACALNWMSAWARAGALQSDDFNHTGKSMRKWALGSLSGAYMRLKFSSSRPLAAHAEQSREIEDWFARLGTQVVRDWSGLPLKKINNHSYWAAWSVMSTAVVTNRRDLFDWAVSEFKVAANQVDEQGFLPNELKRRQRALAYHNYALPPLAMIAPFAQVNGVDLRQENHGALQRLAERVMKGVDDEETFEEKTGEDQDMTDLKVDNKYAWLEPYCALYRCEPNACSRPKKDREPFNSFRLGGEVTRVFSREGGS	–	complete dissolution

Source: patent publication US20130211249A1, “DRUG ELUTING HYDROGELS FOR CATHETER DELIVERY” (The Johns Hopkins University, priority 2010, published 2013)
